Measured values taken from publication PMC10005547, “Development of Highly Efficient Estrogen Receptor β-Targeted Near-Infrared Fluorescence Probes Triggered by Endogenous Hydrogen Peroxide for Diagnostic Imaging of Prostate Cancer” (Molecules, 2023).

Experiments:
[1] = in vitro; parameters: CCK-8 cell viability assay, absorbance at 450 nm; conditions: human, mcf-10a cells; read-out: MCF-10A (IC50)
Experimental: Normal breast cells MCF-10A and prostate cancer cells DU-145 (purchased from ATCC, Rockville, MD, USA), breast cancer cells MCF-7 (purchased from the Type Culture Collection of the Chinese Academy of Sciences, Shanghai, China) were cultured in a phenol red DMEM [compound left out] medium supplemented with 10% fetal bovine serum. When the cell density reached 80% to 90%, the cells were digested, and the cell suspension was spread into 96-well cell culture plates with a phenol red-free DMEM medium containing 10% CS. After the cells were completely adherent, the original culture medium was discarded, and 100 μL of fresh compound solution prepared with the DMEM medium containing 10% CS were added to each well. The concentration gradient of the compound is: 1 × 10^−7.5 M, 1 × 10^−7 M, 1 × 10^−6.5 M, 1 × 10^−6 M, 1 × 10^−5.5 M, 1 × 10^−5 M, 1 × 10^−4.5 M, 1 × 10^−4 M. After 4 days of drug-treated culture, the culture plate was removed, the culture medium was aspirated, 100 μL CCK-8 working solution was added to each well and incubated for 1.5–2 h at 37 °C in a 5% CO2 incubator. The plate was read on the microplate reader, the wavelength at 450 nm was selected as the reference wavelength, the experimental results were analyzed, and the IC50 was calculated. […]

[2] = target: T1, ERα (Homo sapiens, UniProt P03372); assay: fluorescence polarization competition against a fluorescent ligand; type: binding
T1 construct: gene ESR1
T1 sequence (P03372 1-595): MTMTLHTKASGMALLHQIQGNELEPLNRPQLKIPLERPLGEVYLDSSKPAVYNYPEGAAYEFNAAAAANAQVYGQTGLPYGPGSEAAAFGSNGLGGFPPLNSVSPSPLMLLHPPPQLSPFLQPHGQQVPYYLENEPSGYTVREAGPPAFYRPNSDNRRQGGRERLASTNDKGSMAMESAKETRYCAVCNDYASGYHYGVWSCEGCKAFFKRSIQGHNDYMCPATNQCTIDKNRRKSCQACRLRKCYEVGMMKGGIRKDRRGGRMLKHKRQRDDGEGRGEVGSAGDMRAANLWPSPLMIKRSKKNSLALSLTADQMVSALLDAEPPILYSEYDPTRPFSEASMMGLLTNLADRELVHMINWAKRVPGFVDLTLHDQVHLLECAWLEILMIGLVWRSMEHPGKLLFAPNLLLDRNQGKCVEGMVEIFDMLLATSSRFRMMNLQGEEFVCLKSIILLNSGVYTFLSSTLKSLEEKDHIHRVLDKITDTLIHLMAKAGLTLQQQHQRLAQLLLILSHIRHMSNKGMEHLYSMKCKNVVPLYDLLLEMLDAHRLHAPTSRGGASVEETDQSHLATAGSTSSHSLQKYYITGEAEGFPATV

[3] = target: T2, ERβ (Homo sapiens, UniProt Q92731); assay: as above; type: binding
T2 construct: gene ESR2
T2 sequence (Q92731 whole entry): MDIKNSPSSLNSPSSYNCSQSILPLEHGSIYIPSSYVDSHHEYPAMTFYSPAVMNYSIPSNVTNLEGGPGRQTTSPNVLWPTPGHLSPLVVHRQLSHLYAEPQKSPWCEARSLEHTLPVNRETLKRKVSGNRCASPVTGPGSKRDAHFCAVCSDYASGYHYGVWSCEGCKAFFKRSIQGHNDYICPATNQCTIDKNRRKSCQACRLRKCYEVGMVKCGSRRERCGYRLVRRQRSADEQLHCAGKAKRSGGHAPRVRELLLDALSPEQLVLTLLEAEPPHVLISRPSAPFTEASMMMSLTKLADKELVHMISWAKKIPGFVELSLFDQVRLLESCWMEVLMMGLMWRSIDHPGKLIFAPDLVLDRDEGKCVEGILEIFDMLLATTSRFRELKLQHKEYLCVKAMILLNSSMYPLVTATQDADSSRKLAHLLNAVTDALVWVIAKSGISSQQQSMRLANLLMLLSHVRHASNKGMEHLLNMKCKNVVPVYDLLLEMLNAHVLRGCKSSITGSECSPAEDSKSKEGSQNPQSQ

[4] = tested on: DU-145; assay: cells; parameters: CCK-8 cell viability assay, absorbance at 450 nm; conditions: Homo sapiens, DU-145, 96 h
Experimental: (§1) Normal breast cells MCF-10A and prostate cancer cells DU-145 (purchased from ATCC, Rockville, MD, USA), breast cancer cells MCF-7 (purchased from the Type Culture Collection of the Chinese Academy of Sciences, Shanghai, China) were cultured in a phenol red DMEM [compound left out] medium supplemented with 10% fetal bovine serum. When the cell density reached 80% to 90%, the cells were digested, and the cell suspension was spread into 96-well cell culture plates with a phenol red-free DMEM medium containing 10% CS. After the cells were completely adherent, the original culture medium was discarded, and 100 μL of fresh compound solution prepared with the DMEM medium containing 10% CS were added to each well. The concentration gradient of the compound is: 1 × 10^−7.5 M, 1 × 10^−7 M, 1 × 10^−6.5 M, 1 × 10^−6 M, 1 × 10^−5.5 M, 1 × 10^−5 M, 1 × 10^−4.5 M, 1 × 10^−4 M. After 4 days of drug-treated culture, the culture plate was removed, the culture medium was aspirated, 100 μL CCK-8 working solution was added to each well and incubated for 1.5–2 h at 37 °C in a 5% CO2 incubator. The plate was read on the microplate reader, the wavelength at 450 nm was selected as the reference wavelength, the experimental results were analyzed, and the IC50 was calculated. To investigate the toxicity of P1 and P2 on normal cells and their inhibitory activity on cancer cells before performing cellular imaging, we tested the effects of P1 and P2 on MCF-10A normal breast cells, MCF-7 breast cancer cells with high ERα expression, and DU-145 prostate cancer cells with high ERβ expression by using CCK-8 assays (Table S1). […] However, P1 was not toxic to any of these three cell lines.

[5] = tested on: MCF-7; assay: cells; parameters: CCK-8 cell viability assay, absorbance at 450 nm; conditions: Homo sapiens, MCF7, 96 h
Experimental: as §1

Ki [2]	Ki [3]	IC50 [4]	IC50 [5]	SMILES	CC50 at 96 h [1]
4.36 ± 0.01 µM	1.42 ± 0.02 µM	> 100 µM	> 100 µM	CC1(C)OB(c2ccc(/C=C/C3=CC(=C(C#N)C#N)c4cc(O)ccc4O3)cc2)OC1(C)C [P1, (E)-2-(6-Hydroxy-2-(4-(4,4,5,5-tetramethyl-1,3,2-dioxaborolan-2-yl)styryl)-4H-chromen-4-ylidene)malononitrile]	> 100 µM
8.73 ± 0.01 µM	1.21 ± 0.03 µM	> 100 µM	16.3 ± 4.42 µM	C=CS(=O)(=O)Oc1ccc2c(c1)C(=C(C#N)C#N)C=C(/C=C/c1ccc(B3OC(C)(C)C(C)(C)O3)cc1)O2 [P2, (E)-4-(Dicyanomethylene)-2-(4-(4,4,5,5-tetramethyl-1,3,2-dioxaborolan-2-yl)styryl)-4H-chromen-6-yl ethenesulfonate]	> 100 µM
